# Read-outs that look alike come from different tables or passages of the source.
# Key:
# [1] = test system: Pseudomonas aeruginosa biofilm; assay: Biofilm removal from stainless steel coupon
# [2] = test system: spores of Clostridium sporogenes ATCC 3584; format: cell-based; conditions: pH 6.5, 10 hrs, Ambient
# [3] = test system: Trichophyton mentagrophytes ATCC 9533; assay: AOAC Fungicidal Activity of Disinfectants (955.17); format: cell-based; conditions: pH 6.5, 5 min, Ambient
# Experimental: Activity against fungus, Trichophyton mentagrophytes ATCC 9533, was evaluated using the Fungicidal Activity of Disinfectants using Trichophyton mentagrophytes, Official Methods of Analysis of the Association of Official Analytical Chemists, paragraph 955.17. Composition KK was adjusted to pH 6.5 in synthetic hard water (400 ppm hardness) and tested for activity in the presence of a 5% organic soil load. Antimicrobial efficacy was determined by exposing stainless steel penicyclinders containing dried Trichophyton mentagrophytes to 10 mL of the test substance at the desired concentration, temperature and for the desired contact time. After which each penicylinder was removed aseptically and transferred to a neutralizing subculture medium. A peroxyacetic acid composition was also tested by this procedure.
# Mycobacterium bovis BCG = format: cell-based
structure (smiles),measurement,setting,value
"[Na+].[OH-] [caustic, NaOH]",survivors on enrichment of treated coupons,[1]; caustic (3% of 50% NaOH) for 3 min at 160° F.,survivors on one of two coupons
same,"biofilm cleaning performance, ranking","[1]; total 6 min at 160° F., synthetic hard water 500 ppm, acridine orange fluorescence imaging",lastly
CC(=O)OO [Peroxyacetic Acid],# Negative Tubes/# Tubes Tested,[2]; 1000 ppm,59/60
same,# Negative Tubes/# Tubes Tested,[3]; 1000 ppm,10/10
same,concentration of peroxyacetic acid needed to be as effective,Mycobacterium bovis BCG,≥ 1250 ppm
CCCCCCCC(=O)OO [Peroxyoctanoic Acid],# Negative Tubes/# Tubes Tested,[2]; 400 ppm,60/60
same,# Negative Tubes/# Tubes Tested,[3]; 400 ppm,10/10
